Key:
[1] = tested on: CT26 murine colon tumor cells; assay: Anti-tumor activity with or without poly-ICLC, CT26 murine tumor model (Example 13); format: in vivo; conditions: CT26 tumor-bearing BALB/c mice, n=10, day 25 post-tumor implantation, relative to PBS or poly-ICLC alone
Procedure: The goal of this experiment was to determine the requirement for the inclusion of the adjuvant poly-ICLC in a peptide vaccine containing ANCER™ selected neoantigens. For this experiment, female BALB/c mice were implanted subcutaneously with 3×10^5 CT26 murine colon tumor cells. Tumor growth was monitored by caliper measurement and mice were sacrificed 45 days after tumor implantation or when tumor volumes reached 2000 mm^3, whichever came first.
Four vaccine groups were tested (n=10 mice/group): • Group 1=PBS only • Group 2=PBS with 50 μg poly-ICLC • Group 3=20 ANCER™ selected (uncapped) peptides with 50 μg poly-ICLC • Group 4=20 ANCER™ selected (uncapped) peptides only
Peptide vaccines were comprised of 20 different ANCER™ selected peptides at a concentration of 5 μg/peptide for a total dose of 100 μg peptide per immunization. Mice were immunized subcutaneously in the opposite flank from tumor implantation twice per week for three weeks, starting at day 4 post-tumor implantation.

[2] = tested on: CT26 tumor cells; assay: CT26 tumor growth / survival after vaccination (Example 1); format: in vivo; conditions: CT26 tumor-bearing Balb/c mice

## poly-ICLC
[1]
  control of tumor growth: no difference in tumor growth kinetics
[2]; 50 μg sc days 5, 8, 12, 15, 19, 22, 26
  tumor burden compared to Group 1 (mice immunized with PBS): no reduction in tumor burden
[2]; N=10
  mice surviving past day 28: Less than 50%
  mice surviving the 45 days of the experiment (in words): None
[2]; N=10, day 28, PBS group 70%
  mice reaching a tumor volume of at least 2,000 mm^3 (endpoint) by day 28: 60%

Source: patent US20220362365A1, “IMPROVED COMPOSITIONS AND METHODS FOR SHARED NEO-EPITOPE VACCINES” (Epivax Therapeutics Inc., priority 2019, published 2022)
